Source: patent US20230066946A1, “1,5-DIPHENYLPYRAZOLYL-3-OXYALKYL ACIDS AND 1-PHENYL-5-THIENYLPYRAZOLYL-3-OXYALKYL ACIDS AND THE USE THEREOF FOR CONTROL OF UNWANTED PLANT GROWTH” (Bayer Aktiengesellschaft, priority 2019, published 2023)

Key:
VERPE [1] = assay: Pre-emergence herbicidal action against VERPE; assay type: in vivo, Veronica persica; settings: 320 g/ha, scored visually after about 3 weeks vs untreated controls
Procedure, shortened: (§1)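 Greenhouse pot test on sown, soil-covered weed seeds; spray of WP or EC formulation at 1280 or 320 g/ha onto covering soil. Effect rated visually after about 3 weeks (0% = like control, 100% = dead).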

harmful plants = assay: Post-emergence herbicidal action, summary of Tables 5.1-5.16; assay type: in vivo; settings: result in words
Experimental: Seeds of mono- and dicotyledonous weed plants are placed in plastic pots in sandy loam soil (twin sowing with one species each of mono- or dicotyledonous weed plants per pot), covered with soil and cultivated in a greenhouse under controlled growth conditions. 2 to 3 weeks after sowing, the test plants are treated at the one-leaf stage. The compounds of the invention, formulated in the form of wettable powders (WP) or as emulsion concentrates (EC), are applied to the green parts of the plants as aqueous suspension or emulsion with addition of 0.5% additive at a water application rate equivalent to 600 litres per hectare. After the test plants have been kept in the greenhouse under optimum growth conditions for about 3 weeks, the activity of the preparations is rated visually in comparison to untreated controls. For example, 100% activity=the plants have died, 0% activity=like control plants. Tables 5.1-5.16 below show the effects of selected compounds of the general formula (I) according to Tables 1 to 3 on various harmful plants at an application rate corresponding to 1280 or 320 g/ha, which have been obtained by the aforementioned experimental method. As the results from Tables 5.1-5.16 show, compounds of the invention have good herbicidal post-emergence efficacy against a broad spectrum of weed grasses and weeds. […] For example, compounds Nos. I-002, I-006, I-022, I-056 and I-072 applied by the post-emergence method have very good herbicidal action (80% to 100% herbicidal action) against harmful plants such as Alopecurus myosuroides, Amaranthus retroflexus, Matricaria inodora, Setaria viridis, Pharbitis purpurea and Stellaria media at an application rate of 1.28 kg of active substance or less per hectare.

POLCO [2] = assay: Post-emergence herbicidal action against POLCO; assay type: in vivo, Polygonum convolvulus; settings: 320 g/ha, visual rating about 3 weeks after treatment
Experimental: (§2) [table] Seeds of mono- and dicotyledonous weed plants are placed in plastic pots in sandy loam soil (twin sowing with one species each of mono- or dicotyledonous weed plants per pot), covered with soil and cultivated in a greenhouse under controlled growth conditions. 2 to 3 weeks after sowing, the test plants are treated at the one-leaf stage. The compounds of the invention, formulated in the form of wettable powders (WP) or as emulsion concentrates (EC), are applied to the green parts of the plants as aqueous suspension or emulsion with addition of 0.5% additive at a water application rate equivalent to 600 litres per hectare. After the test plants have been kept in the greenhouse under optimum growth conditions for about 3 weeks, the activity of the preparations is rated visually in comparison to untreated controls. For example, 100% activity=the plants have died, 0% activity=like control plants. Tables 5.1-5.16 below show the effects of selected compounds of the general formula (I) according to Tables 1 to 3 on various harmful plants at an application rate corresponding to 1280 or 320 g/ha, which have been obtained by the aforementioned experimental method.

AMARE [3] = assay: Pre-emergence herbicidal action against AMARE; assay type: in vivo, Amaranthus retroflexus; settings: scored visually after about 3 weeks vs untreated controls; for Pre-emergence action at 320 g/ha against AMARE in %: 100% = plants have died, 0% = like control plants; for Pre-emergence action against AMARE in %: 1280 g/ha
Procedure, shortened: as §1

AMARE [4] = assay: Post-emergence herbicidal action against AMARE; assay type: in vivo, Amaranthus retroflexus; settings: visual rating about 3 weeks after treatment
Procedure, shortened: (§3)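 Applied post-emergence at 1280 or 320 g/ha to one-leaf-stage weeds grown in sandy loam, using WP or EC formulations in water (600 litres per hectare, 0.5% additive). Efficacy is scored visually relative to untreated plants about 3 weeks later, 0% meaning no effect and 100% plant death.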

PHBPU = assay: Post-emergence herbicidal action against PHBPU; assay type: in vivo, Pharbitis purpurea; settings: 320 g/ha, visual rating about 3 weeks after treatment
Procedure, shortened: as §3

STEME [5] = assay: Post-emergence herbicidal action against STEME; assay type: in vivo, Stellaria media; settings: visual rating about 3 weeks after treatment
Procedure, shortened: as §3

MATIN [6] = assay: Post-emergence herbicidal action against MATIN; assay type: in vivo, Matricaria inodora; settings: visual rating about 3 weeks after treatment
Procedure, shortened: as §3

VERPE [7] = assay: Post-emergence herbicidal action against VERPE; assay type: in vivo, Veronica persica; settings: 320 g/ha, visual rating about 3 weeks after treatment
Procedure, shortened: as §3

VIOTR [8] = assay: Pre-emergence herbicidal action against VIOTR; assay type: in vivo, Viola tricolor; settings: 1280 g/ha, scored visually after about 3 weeks vs untreated controls
Description: (§4) Seeds of mono- and dicotyledonous weed plants are placed in plastic pots in sandy loam soil (doubly sown with one species each of mono- or dicotyledonous weed plants per pot) and covered with soil. The compounds of the invention, formulated in the form of wettable powders (WP) or as emulsion concentrates (EC), are then applied onto the surface of the covering soil as aqueous suspension or emulsion with addition of 0.5% additive at a water application rate equivalent to 600 litres per hectare. After the treatment, the pots are placed in a greenhouse and kept under good growth conditions for the trial plants. After about 3 weeks, the effect of the preparations is scored visually in comparison with untreated controls as percentages. For example, 100% activity=the plants have died, 0% activity=like control plants. [table] Tables 4.1-4.15 below show the effects of selected compounds of the general formula (I) according to Tables 1 to 3 on various harmful plants at an application rate corresponding to 1280 or 320 g/ha, which have been obtained by the aforementioned experimental method.

ALOMY = assay: Post-emergence herbicidal action against ALOMY; assay type: in vivo, Alopecurus myosuroides; settings: 1280 g/ha, post-emergence at one-leaf stage, rated visually after about 3 weeks vs untreated controls
Experimental: as §2

MATIN [9] = assay: Pre-emergence herbicidal action against MATIN; assay type: in vivo, Matricaria inodora; settings: 1280 g/ha, scored visually after about 3 weeks vs untreated controls
Description: as §4

VIOTR [10] = assay: Post-emergence herbicidal action against VIOTR; assay type: in vivo, Viola tricolor; settings: 320 g/ha, visual rating about 3 weeks after treatment
Procedure, shortened: as §3

HORMU = assay: Post-emergence herbicidal action against HORMU; assay type: in vivo, Hordeum murinum; settings: 320 g/ha, visual rating about 3 weeks after treatment
Experimental: as §2

SETVI [11] = assay: Pre-emergence herbicidal action against SETVI; assay type: in vivo, Setaria viridis; settings: 1280 g/ha, scored visually after about 3 weeks vs untreated controls
Procedure, shortened: as §1

ECHCG [12] = assay: Post-emergence herbicidal action against ECHCG; assay type: in vivo, Echinochloa crus-galli; settings: 1280 g/ha, post-emergence at one-leaf stage, rated visually after about 3 weeks vs untreated controls
Procedure, shortened: as §3

STEME [13] = assay: Pre-emergence herbicidal action against STEME; assay type: in vivo, Stellaria media; settings: scored visually after about 3 weeks vs untreated controls
Procedure, shortened: as §1

POLCO [14] = assay: Pre-emergence herbicidal action against POLCO; assay type: in vivo, Polygonum convolvulus; settings: 320 g/ha, scored visually after about 3 weeks vs untreated controls
Description: as §4

ECHCG [15] = assay: Pre-emergence herbicidal action against ECHCG; assay type: in vivo, Echinochloa crus-galli; settings: scored visually after about 3 weeks vs untreated controls, 100% = plants have died, 0% = like control plants
Procedure, shortened: as §1

SETVI [16] = assay: Post-emergence herbicidal action against SETVI; assay type: in vivo, Setaria viridis; settings: 1280 g/ha, post-emergence at one-leaf stage, rated visually after about 3 weeks vs untreated controls
Procedure, shortened: as §3

Row | Compound | Pre-emergence action against VERPE in % (VERPE [1]) [%] | herbicidal efficacy against harmful plants when applied post-emergence (harmful plants) | Post-emergence action against POLCO in % (POLCO [2]) [%] | Pre-emergence action at 320 g/ha against AMARE in % (AMARE [3]) [%] | Post-emergence action against AMARE in % (AMARE [4]; 320 g/ha) [%] | Post-emergence action against PHBPU in % (PHBPU) [%] | Post-emergence action against STEME in % (STEME [5]; 320 g/ha) [%] | Post-emergence action against MATIN in % (MATIN [6]; 1280 g/ha) [%] | Post-emergence action against VERPE in % (VERPE [7]) [%] | Pre-emergence action against AMARE in % (AMARE [3]) [%] | Post-emergence action against AMARE in % (AMARE [4]; 1280 g/ha) [%] | Post-emergence action against VIOTR in % (VIOTR [10]) [%] | Post-emergence action against STEME in % (STEME [5]; 1280 g/ha) [%] | Post-emergence action against HORMU in % (HORMU) [%] | Pre-emergence action against SETVI in % (SETVI [11]) [%] | Post-emergence action against ECHCG in % (ECHCG [12]) [%] | Pre-emergence action against STEME in % (STEME [13]; 320 g/ha) [%] | Pre-emergence action against STEME in % (STEME [13]; 1280 g/ha) [%] | Pre-emergence action against POLCO in % (POLCO [14]) [%] | Pre-emergence action at 1280 g/ha against ECHCG in % (ECHCG [15]) [%] | other results
1 | COC(=O)COc1nn(-c2ccccc2)c(-c2ccc(F)cc2)c1C#N [I-014] | 100 | very good herbicidal efficacy | 80 | 100 | 80 | 80 | 80 | – | – | – | – | – | – | – | – | – | – | – | – | – | –
2 | COC(=O)COc1nn(-c2cccc(Cl)c2)c(-c2cccc(F)c2)c1C#N [I-046] | – | – | – | 90 | – | 80 | 80 | 80 | 80 | 90 | 80 | 80 | 80 | – | – | – | – | – | – | – | Pre-emergence action against VIOTR in % (VIOTR [8]): 90%; Post-emergence action against ALOMY in % (ALOMY): 80%; Pre-emergence action against MATIN in % (MATIN [9]): 90%
3 | COC(=O)COc1nn(-c2ccccc2F)c(-c2ccc(F)c(F)c2)c1Br [I-055] | 90 | – | 80 | 100 | 90 | 80 | 80 | 100 | 80 | 100 | 90 | 100 | 100 | 80 | 100 | 100 | 100 | 100 | 90 | 100 | –
4 | CCOC(=O)COc1nn(-c2ccccc2F)c(-c2ccccc2)c1[N+](=O)[O-] [I-075] | – | – | 80 | – | – | 90 | – | – | 80 | – | – | 100 | – | 80 | – | – | 80 | – | 80 | – | Post-emergence action against MATIN in % (MATIN [6]; 320 g/ha): 80%
5 | O=C(O)COc1nn(-c2c(F)cccc2F)c(-c2ccc(F)c(F)c2)c1Br [I-137] | 90 | – | 90 | 90 | 80 | 90 | 90 | 90 | 90 | 100 | 90 | 80 | 100 | 80 | 100 | 100 | 90 | 100 | 100 | 100 | Post-emergence action against MATIN in % (MATIN [6]; 320 g/ha): 80%; Post-emergence action against SETVI in % (SETVI [16]): 90%
6 | COC(=O)[C@H](C)Oc1nn(-c2ccccc2)c(-c2ccc(F)cc2)c1C#N [I-141] | – | – | – | 90 | 90 | – | 90 | 90 | – | 100 | 90 | 90 | 90 | 80 | 100 | 100 | 80 | 90 | – | 100 | Post-emergence action against MATIN in % (MATIN [6]; 320 g/ha): 80%
7 | C1COCCN1.O=C(O)COc1nn(-c2cccc(F)c2)c(-c2ccccc2)c1I [II-04] | – | very good herbicidal efficacy | – | – | – | – | – | – | – | 100 | – | – | 100 | – | – | – | – | 100 | – | 100 | –
8 | COC(=O)CNC(=O)C(C)Oc1nn(-c2ccccc2)c(-c2ccc(F)cc2)c1Cl (stereo not drawn) [III-058] | – | very good herbicidal efficacy | – | – | – | – | – | 100 | – | 100 | 90 | – | 100 | – | 90 | – | – | 100 | – | 90 | Post-emergence action against SETVI in % (SETVI [16]): 100%
